From patent US12528809B2, “Crystalline forms of gepotidacin” (GLAXOSMITHKLINE INTELLECTUAL PROPERTY DEVELOPMENT LIMITED, priority 2020, dated 2026)

Tests used:
[1] = Physical form stability / conversion to Form 1; type: physicochemical
Method: The suspension was heated with a heat gun to dissolve most of the solids, and then left to slowly cool to room temperature. The resultant crystals were filtered and analysed by DSC, TGA, and XRPD.
Amorphous gepotidacin mesylate can be generated via lyophilization. Form 1 (150 mg) was dissolved MeCN/water (80/20 v/v; 1 mL). A clarifying filtration was performed and the filtrate was added to a 20 mL vial. The solution was frozen under liquid nitrogen and lyophilized for 4 hours.

[2] = Moisture sorption/desorption isotherms (DVS); details: first sorption cycle
Text: The moisture sorption/desorption isotherms of gepotidacin mesylate dihydrate and gepotidacin HCl were obtained over a range of 5-90% relative humidity.

| SMILES | physical form stability ([1]; amorphous by lyophilization from MeCN/water (80/20 v/v)) | physical form stability ([1]; amorphous by lyophilization of an aq. t-BuOH solution, ambient conditions) | physical form stability ([1]; ambient conditions) | physical form stability ([1]; ambient conditions, listed as Gepotidacin Mesylate Anhydrate (Form 2)) | critical RH step [2] | uptake of water ([2]; critical step at 60% RH, indicates conversion to Form 1) |
| --- | --- | --- | --- | --- | --- | --- |
| CS(=O)(=O)O.O.O.O=c1ccc2ncc(=O)n3c2n1C[C@H]3CN1CCC(NCc2cc3c(cn2)OCCC3)CC1 [Amorphous gepotidacin mesylate] | started to convert to Form 1 unless stored in a sealed vial with desiccant | physically stable for at least three days |  |  |  |  |
| CS(=O)(=O)O.O.O.O=c1ccc2ncc(=O)n3c2n1C[C@H]3CN1CCC(NCc2cc3c(cn2)OCCC3)CC1 [Gepotidacin mesylate anhydrate (Form 2)] |  |  | convert to Gepotidacin mesylate dihydrate (Form 1) after one hour | unstable under ambient conditions | 60 % RH | 4.8% |
